In patent publication US12728120B2, “Prevention or treatment of brain disease and adverse effects of cholinesterase inhibitors” (DR. NOAH BIOTECH INC., priority 2021, dated 2026):
Structures can show the parent of a compound that is named as a salt.

Experiments:
[1] = tested on: neural progenitor cells; experiment: Number of viable cells (cytotoxicity) in neural progenitor cells; conditions: with donepezil, NAC or their combination; FIG. 13B
[2] = tested on: microglia cells (BV2); experiment: NO assay (Griess reagent) in LPS-treated BV2 microglial cells; type: cell-based; conditions: donepezil HCl alone, antioxidant alone or combination, FIG. 8
Procedure: (§1) Briefly, BV2 microglial cells were plated in 96-well plates at 2×10^5 cells/well in DMEM high glucose medium (Welgene, LM001-05) supplemented with 10% fetal bovine serum (FBS; YOUNG IN, US-FBS-500) and 1% penicillin-streptomycin (P-S; Gibco, 15070063).
After incubation, NO levels were quantified from half of the cell media using a Griess reagent assay kit (Promega, G2930). Colorimetric changes in the media and Griess reagent mixture were measured using a Synergy HTX Multi-Mode reader (Biotek) at 540 nm. All data were analyzed using the GraphPad Prism 9 software. Statistical significance was assessed using a one-way ANOVA or two-way ANOVA followed by Dunnett's post-hoc analysis unless otherwise noted. All data are presented as the mean±SEM, and significance was set at P<0.05. […] (*P<0.05, **P<0.01, ***P<0.001, ****P<0.0001, one-way ANOVA).

[3] = tested on: neuronal cells (SH-SY5Y); experiment: ROS production (DCF-DA) in H2O2-treated SH-SY5Y cells; type: cell-based; conditions: 100 μM H2O2 24 hours, DONE alone 5 uM, NAC alone 5 uM, NDC = DONE 2.5 uM + NAC 2.5 uM, FIG. 3
Procedure: SH-SY5Y cells were plated in 96 well plates at 2×10^5 cells/well in DMEM supplemented with 10% fetal bovine serum (FBS; YOUNG IN, US-FBS-500) and 1% penicillin-streptomycin (P-S; Gibco, 15070063). Six hours after seeding, SH-SY5Y cells were treated with 100 μM H2O2 for 24 hours (Sigma, #323381) followed by incubation with DONE alone, NAC alone, and combination of DONE and NAC. After incubation, ROS activity in the cell was measured by adding DCF-DA (Thermo, #D399) containing media. Absorbance was measured using a Synergy HTX Multi-Mode reader (Biotek) with 465 nm excitation and 540 nm emission. Measured fluorescence was normalized to control as follows: (drug-treated group OD−DCF-DA alone O.D)/(control O.D−DCF alone O.D)*100.

[4] = tested on: IL-6; experiment: IL-6 ELISA in LPS-treated BV2 microglial cells; type: cell-based, mouse; conditions: BV2, 1 μg/ml LPS, 18 hours; FIG. 4
Procedure: as §1

[5] = tested on: ReN VM-immortalized cells, human neural progenitor cell line; experiment: HB9 motor neuron marker expression in neural progenitor cells (differentiation); type: cell-based; conditions: alone or combined, 3 days
Procedure: ReN VM-immortalized cells, human neural progenitor cell line, were used (EMD Millipore, SCC008). These neural progenitor cells can differentiate into motor neurons and glial cells. The degree of differentiation of neural progenitor cells into motor neurons was determined by analysing the level of HB9, a specific motor neuron marker. ReN VM cells were cultured on laminin (Corning, 354232)-coated 75T Flask in the growth medium, which is DMEM/F12 (Welgene, #LM002-08) supplemented with 20 ng/ml basic fibroblast growth factor (bFGF; Gibco, 15750-060), 20 ng/ml epidermal growth factor (EGF; Sigma, E9644), serum-free B27 (Gibco, 17504-044), 10 KU heparin (Sigma, H3393), and 1% gentamicin (Gibco, 17504-044). Cells were plated in 96-well plates at 7000 cells/well in the growth media in a 37° C./5% CO2 incubator for 3 days. […] Immunostaining was performed against HB9, a specific motor neuronal marker, to assess the population of motor neurons. Briefly, drug-treated ReN VM cells were fixed in 10% formalin solution for 20 minutes and permeabilized in 0.1% TritonX-100. […] Fluorescence intensity levels were measured using an Odyssey® DLx Infrared Imaging System (LI-COR, CLS-2383). All data were analyzed using the GraphPad Prism 9 software. Statistical significance was assessed using a one-way ANOVA or two-way ANOVA followed by Dunnett's post-hoc analysis unless otherwise noted. […]

[6] = tested on: PSD-95; experiment: PSD-95 expression (western blot) in primary cultured neurons; type: cell-based, mice; conditions: mouse primary neuro-glia culture, 4 days treatment, β-actin normalized; FIG. 14B
Procedure: (§2) To evaluate the synaptic plasticity, primary neuro-glia culture was prepared from cortices of embryonic day 16 C57/BL6 mice. Cells were collected by mechanical dissection and chemical dissociation with trypsin and DNase treatment and cultured in Neurobasal (NB) and MEM media supplemented with 1% B-27, 2 mM L-glutamine, 5% Fetal Bovine Serum, 5% Horse Serum, 1×MEM-NEAA (non-essential amino acids), and 1% Penicillin-Streptomycin (PS). Cells were cultured in Poly-D-Lysine+Laminin-coated 6-well plates at 2×10^6 cells/well in growth media. After 3 days in vitro (DIV 3), media was changed to NB media supplemented with 2% B-27, 2 mM L-glutamine, and 1% PS. […] Protein was resolved by 8% SDS-PAGE electrophoresis, transferred to polyvinylidene difluoride membranes and blocked with 5% non-fat dry milk for 1 hour at RT. Membrane was immunoblotted using following antibodies; primary antibody: PSD-95 (Abcam, ab18258, 1:2,000), phospho-CREB (Millipore, #06-519, 1:2,000), β-actin (Cell signaling, #3700, 1:3,000), and secondary antibody:HRP-conjugated anti-mouse IgG (AbFrontier, LF-SA8001, 1:5,000), HRP-conjugated anti-rabbit IgG (AbFrontier, LF-SA8002, 1:5,000). Signal was visualized by chemiluminescence methods using ECL solution and imaged using ImageQuant LAS 500 system. […]

[7] = tested on: pCREB; experiment: pCREB expression (western blot) in primary cultured neurons; type: cell-based, mice; conditions: mouse primary neuro-glia culture, 4 days treatment, β-actin normalized; FIG. 14C
Procedure: as §2

[8] = tested on: cerebral infarction-reperfusion model in Sprague-Dawley rats; experiment: Rotarod test in MCAO-reperfusion stroke model; type: in vivo; conditions: for Rotarod score (fall latency normalized to day 1), mean value: I.V. daily, FIG. 15
Procedure: The Rotarod test was performed on the 1, 3, 7, 14, and 21 days after 45 minutes-MCAO (middle cerebral artery occlusion)-reperfusion modelling to induced ischemia (Brain Stroke). […] The animal was carefully placed on a rotating rod (JD-A-07RA5, BS Technolab Inc., Korea) and the time (second) that animal was fallen was measured. The speed of rotating rod was increased from 4 rpm to 40 rpm for 300 second. […] For rotarod latency test, Nested one-way ANOVA and Two-way ANOVA was used to analyze significance between the groups on each day. Statistical analysis was performed using Prism 9 (GraphPad Software Inc., San Diego, CA, USA) and statistical significance was set at a P-value of less than 0.05.

[9] = tested on: PI3K-AKT pathway; experiment: pAKT expression in brain (western blot), MCAO-reperfusion model; type: in vivo, Sprague-Dawley rats
Procedure: (§3) At 21 days after 45-minutes-MCAO-reperfusion modeling, brains were collected to perform a western blot assay. Brains were homogenized in lysate buffer with protease inhibitor cocktail on ice. Each sample was centrifuged at 13,000 rpm and 4° C. for 30 minutes and the supernatant was used for further experiments. Protein concentration was measured using DC (Bio-rad, #5000112) protein assay. Samples were loaded using the SDS-PAGE system (Bio-rad, #1658004 and #1645052) and transferred onto nitrocellulose membranes (Bio-rad, #17001917 and #1704272). The membranes were blocked for 1 hour at room temperature with Tris-buffered saline-Tween20 (TBS-T) containing 5% skim milk and then incubated with pAKT antibody (Cell signaling, #4060), AKT primary antibody (Santacruz, SC-81434), EPO primary antibody (SCBT, SC-5290), ERK (CST, #9102), pERK (CST, #9101) and GAPDH (Bioworld, #MBOO1H) in 5% skim milk overnight at 4° C. Next day, the membranes were washed 3 times in TBS-T for 5 minutes, incubated with horseradish peroxidase-conjugated (HRP-conjugated) secondary antibody or fluorescence conjugated secondary antibody for 1-2 hours, and then washed 3 times in TBS-T for 5 minutes again. After final wash, the membranes were developed for chemiluminescence or fluorescence system. The signals of chemiluminescence or fluorescence were acquired and quantified by using ECL solution (Bio-rad, #1705062), iBright 1500 (Invitrogen, #CL1500), and Odyssey CLx (LI-COR, #CLX-2383) imaging system.

[10] = tested on: ERK pathway; experiment: pERK expression in brain (western blot), MCAO-reperfusion model; type: in vivo, Sprague-Dawley rats
Procedure: as §3

[11] = tested on: EPO; experiment: EPO expression in brain (western blot), MCAO-reperfusion model; type: in vivo, Sprague-Dawley rats; conditions: 21 days after MCAO
Procedure: as §3, with “Brains” for “At 21 days after 45-minutes-MCAO-reperfusion modeling, brains were collected to perform a western blot assay. Brains”, “Each sample was centrifuged at 13,000 rpm and 4° C. for 30 minutes and the supernatant was used for further experiments.” left out

[12] = 1 mpk donepezil HCl or 120 mpk NAC used alone, FIG. 17
[13] = brain, 21 days after MCAO, 1 mpk donepezil HCl, 120 mpk NAC, alone or combined

Structure (SMILES) | NO, mean value relative to LPS (100%) [2] [%] | ROS, mean value normalized to control (CTL 100%) [3] [%] | PSD-95 expression, mean value normalized to untreated control (CTL 1.0) [6] | pCREB expression, mean value normalized to untreated control (CTL 1.0) [7] | Rotarod score normalized to VEH (100%) ([8]; day 3 after MCAO) [%] | Rotarod score (fall latency normalized to day 1), mean value ([8]; day 3 after MCAO) | Rotarod score (fall latency normalized to day 1), mean value ([8]; day 7 after MCAO) | Rotarod score normalized to VEH (100%) ([8]; day 14 after MCAO) [%] | Rotarod score (fall latency normalized to day 1), mean value ([8]; day 14 after MCAO) | Rotarod score normalized to VEH (100%) ([8]; day 21 after MCAO) [%] | Rotarod score (fall latency normalized to day 1), mean value ([8]; day 21 after MCAO) | other results
CO[C@H]1C[C@@H]2CC[C@@H](C)[C@@](O)(O2)C(=O)C(=O)N2CCCC[C@H]2C(=O)O[C@H]([C@H](C)C[C@@H]2CC[C@@H](O)[C@H](OC)C2)CC(=O)[C@H](C)/C=C(\C)[C@@H](O)[C@@H](OC)C(=O)[C@H](C)C[C@H](C)/C=C/C=C/C=C/1C [rapamycin] | – | – | – | – | – | – | – | – | – | – | – | cytotoxicity on addition of rapamycin [1]: did not induce cytotoxicity
COc1ccc([C@H]2OC[C@H]3[C@@H]2CO[C@H]3c2ccc(O[C@@H]3O[C@H](CO)[C@@H](O)[C@H](O)[C@H]3O)c(OC)c2)cc1OC [Forsythin] | 89.97 | – | – | – | – | – | – | – | – | – | – | –
CC(=O)N[C@@H](CS)C(=O)O [NAC, N-acetylcysteine] | – | 88.93 | 1.43 | 1.13 | 139.30 | 23.39 | 38.01 | 83.86 | 40.65 | 44.96 | 28.67 | IL-6, mean value relative to LPS (100%) [4]: 95.48%; HB9 expression level, mean value relative to CTL (100%) ([5]; donepezil 0.1 μM, NAC 12 μM, FIG. 9A): 116.9%; HB9 expression level, mean value relative to CTL (100%) ([5]; donepezil 1 μM, NAC 120 μM, FIG. 9B): 125.36%; activation of the PI3K-AKT pathway [9, 12]: did not activate; pAKT expression normalized to VEH (100%) [9, 13]: 55.88%; pAKT expression, mean value ([9]; brain, 21 days after MCAO, 1 mpk donepezil HCl, 120 mpk NAC, alone or combined, FIG. 17A): 44.23; activation of the ERK pathway [10, 12]: did not activate; pERK expression normalized to VEH (100%) [10, 13]: 189.77%; pERK expression, mean value ([10]; brain, 21 days after MCAO, 1 mpk donepezil HCl, 120 mpk NAC, alone or combined, FIG. 17B): 99.50; EPO expression normalized to VEH (100%) [11]: 151.66%; EPO expression, mean value ([11]; FIG. 18): 172.43
COc1cc2c(cc1OC)C(=O)C(CC1CCN(Cc3ccccc3)CC1)C2 (stereo not shown) [Donepezil-HCl, donepezil] | – | 76.52 | 1.20 | 0.92 | 93.92 | 15.77 | 30.61 | 81.08 | 39.30 | 77.68 | 49.53 | –
O=C(O)CCCCC1CCSS1 (stereo not shown) [Thioctic acid] | 68.45 | – | – | – | – | – | – | – | – | – | – | –
